Test results published in patent US8835644B2, “Broad spectrum benzothiophene-nitrothiazolide and other antimicrobials” (University of Virginia Patent Foundation, priority 2009, dated 2014).
≈ marks a conversion by molar mass, not a printed value. Where a name gives a salt, the structure may show the parent alone. Read-outs that look alike come from different tables or passages of the source. Each block holds one compound with its values, some of them ahead of it.

Columns and labels:
MRSA = test: MIC testing by broth dilution, MRSA; type: cell-based, Staphylococcus aureus
Method: (§1) A standard broth dilution protocol was used in 96 well microplates containing a standard dilution of the microorganism to be tested in 100 microliters of the appropriate medium. Appropriate medium: E. coli, LB medium; Staphylococcus strains, Trypticase Soy; and for H. pylori and C. jejuni, Brain Heart Infusion. The compounds to be tested were set at 32 μg/ml in 200 microliters in well one and then serially diluted to provide a range from 32 to 0.06. The wells were scored visually at 24 h. The well where there was no growth was recorded as the MIC. Clostridium difficile was tested by agar diffusion and disk diffusion (Kirby Bower) methods under anaerobic conditions on Wilkins Chalgrin agar. In these assays, zone of inhibited growth was measured and compared by relative ratio to the zone recorded for NTZ.
(§2) Representative compounds of the invention were tested in a series of assays against a series of organisms as described above. […] The organisms tested include, C. difficile, H. pylori, C. jejuni, MRSA, S. epidermidis, and E. coli. S. epidermidis and E. coli were tested in the plank and biofilm assay. A disk diffusion assay was also used for C. difficile. Direct PFOR enzyme assays were also performed. All analogues and derivatives were not tested on every organism in every type of assay (the “-” in each table means that it was not tested).

E. coli = test: MIC testing by broth dilution, E. coli plank; type: cell-based, Escherichia coli
Method: as §1, §2

C. difficile = test: Disk diffusion (Kirby Bower), C. difficile; type: cell-based, Clostridium difficile; settings: zone of inhibited growth as relative ratio to the zone for NTZ
Method: as §1, §2

S. epidermidis = test: MIC testing by broth dilution, S. epidermidis plank; type: cell-based, Staphylococcus epidermidis
Method: as §1, §2

C. jejuni = test: MIC testing by broth dilution, C. jejuni; type: cell-based, Campylobacter jejuni
Method: as §1, §2

H. pylori = test: MIC testing by broth dilution, H. pylori; type: cell-based, Helicobacter pylori
Method: as §1, §2

[1] = broth dilution, Trypticase Soy, 24 h, read-out: MIC (μM) MRSA
[2] = broth dilution, LB medium, 24 h, read-out: MIC (μM) E. coli Plank
[3] = broth dilution, Trypticase Soy, 24 h, read-out: MIC (μM) S. epidermidis Plank
[4] = broth dilution, Brain Heart Infusion, 24 h, read-out: MIC (μM) C. jejuni
[5] = broth dilution, Brain Heart Infusion, 24 h, read-out: MIC (μM) H. pylori
[6] = Thiophene analogues table, read-out: MIC MRSA
[7] = planktonic, Thiophene analogues table, read-out: MIC E. coli Plank
[8] = planktonic, Thiophene analogues table, read-out: MIC S. epidermidis Plank
[9] = Thiophene analogues table, read-out: MIC C. jejuni
[10] = Thiophene analogues table, read-out: MIC H. pylori
[11] = Furan analogues table, read-out: MIC MRSA
[12] = planktonic, Furan analogues table, read-out: MIC E. coli Plank
[13] = planktonic, Furan analogues table, read-out: MIC S. epidermidis Plank
[14] = Furan analogues table, read-out: MIC C. jejuni
[15] = Furan analogues table, read-out: MIC H. pylori
[16] = Staphylococcus aureus, MRSA, 24 h, read-out: MIC (μM) MRSA
[17] = Escherichia coli, 24 h, read-out: MIC (μM) E. coli Plank
[18] = Staphylococcus epidermidis, 24 h, read-out: MIC (μM) S. epidermidis Plank
[19] = Campylobacter jejuni, 24 h, read-out: MIC (μM) C. jejuni
[20] = Helicobacter pylori, 24 h, read-out: MIC (μM) H. pylori

Compound: O=C(Nc1ncc([N+](=O)[O-])s1)c1cccc(OC(F)(F)F)c1 [VPC16a1041]
MIC (MRSA; [1]): 6.0 µM (≈ 2 µg/mL)
MIC (E. coli; [2]): 96.0 µM (≈ 32 µg/mL)
Disk Diffusion (%) C. difficile (C. difficile): 90%
MIC (S. epidermidis; [3]): 12.0 µM (≈ 4 µg/mL)
MIC (C. jejuni; [4]): 9.0 µM (≈ 3 µg/mL)
MIC (H. pylori; [5]): 1.1 µM (≈ 0.367 µg/mL)

Compound: Cl.O=C(COc1ccccc1C(=O)Nc1ncc([N+](=O)[O-])s1)OC1CNC1 [VPC162083]
MIC (MRSA; [1]): 77.1 µM
MIC (E. coli; [2]): 77.1 µM
MIC (S. epidermidis; [3]): 77.1 µM
MIC (C. jejuni; [4]): 77.1 µM
MIC (H. pylori; [5]): 24.1 µM

MIC (MRSA; [6]): 24.9 µM (≈ 8 µg/mL)
MIC (E. coli; [7]): 99.6 µM (≈ 32 µg/mL)
MIC (S. epidermidis; [8]): 12.4 µM (≈ 3.98 µg/mL)
MIC (C. jejuni; [9]): 12.4 µM (≈ 3.98 µg/mL)
MIC (H. pylori; [10]): 7.8 µM (≈ 2.51 µg/mL)
Compound: O=C(Nc1ncc([N+](=O)[O-])s1)c1ccc(-c2ccco2)s1 [VPC16b1148]

MIC (MRSA; [11]): 89.1 µM (≈ 32 µg/mL)
MIC (E. coli; [12]): 89.1 µM (≈ 32 µg/mL)
MIC (S. epidermidis; [13]): 89.1 µM (≈ 32 µg/mL)
MIC (C. jejuni; [14]): 89.1 µM (≈ 32 µg/mL)
MIC (H. pylori; [15]): 1.4 µM (≈ 0.503 µg/mL)
Compound: O=C(Nc1ncc([N+](=O)[O-])s1)c1ccc(-c2ccc3c(c2)OCO3)o1 [VPC16b1132]

Compound: O=C(Nc1ncc([N+](=O)[O-])s1)c1cc2ccccc2[nH]1 [VPC16b1031, N-(5-Nitrothiazol-2-yl)-1H-indole-2-carboxamide]
MIC (MRSA; [16]): 27.8 µM (≈ 8.01 µg/mL)
MIC (E. coli; [17]): 111 µM (≈ 32 µg/mL)
Disk Diffusion (%) C. difficile (C. difficile): 75%
MIC (S. epidermidis; [18]): 13.9 µM (≈ 4.01 µg/mL)
MIC (C. jejuni; [19]): 13.9 µM (≈ 4.01 µg/mL)
MIC (H. pylori; [20]): 6.9 µM (≈ 1.99 µg/mL)

MIC (MRSA; [1]): 80.3 µM (≈ 32 µg/mL)
MIC (E. coli; [2]): 80.3 µM (≈ 32 µg/mL)
MIC (S. epidermidis; [3]): 80.3 µM (≈ 32 µg/mL)
MIC (C. jejuni; [4]): 80.3 µM (≈ 32 µg/mL)
MIC (H. pylori; [5]): 0.9 µM (≈ 0.359 µg/mL)
Compound: O=C(COc1ccccc1C(=O)Nc1ncc([N+](=O)[O-])s1)Nc1ccccc1 [VPC162056]

Compound: NCCOC(=O)COc1ccccc1C(=O)Nc1ncc([N+](=O)[O-])s1 [VPC162082, 2-Aminoethyl 2-(2-(5-nitrothiazol-2-ylcarbamoyl)phenoxy)acetate hydrochloride]
MIC (MRSA; [16]): 79.4 µM
MIC (E. coli; [17]): 79.4 µM
MIC (S. epidermidis; [18]): 79.4 µM
MIC (C. jejuni; [19]): 29.8 µM
MIC (H. pylori; [20]): 6.2 µM

MIC (MRSA; [1]): 95.1 µM (≈ 32 µg/mL)
MIC (E. coli; [2]): 95.1 µM (≈ 32 µg/mL)
MIC (S. epidermidis; [3]): 95.1 µM (≈ 32 µg/mL)
MIC (C. jejuni; [4]): 17.8 µM (≈ 5.99 µg/mL)
MIC (H. pylori; [5]): 1.5 µM (≈ 0.505 µg/mL)
Compound: CN(C)CCOc1ccccc1C(=O)Nc1ncc([N+](=O)[O-])s1 [VPC162052]

Compound: O=C(Nc1ncc([N+](=O)[O-])s1)c1ccc(-c2ccoc2)o1 [VPC16b1142]
MIC (MRSA; [11]): 26.2 µM (≈ 8 µg/mL)
MIC (E. coli; [12]): 104.8 µM (≈ 32 µg/mL)
MIC (S. epidermidis; [13]): 13.1 µM (≈ 4 µg/mL)
MIC (C. jejuni; [14]): 13.1 µM (≈ 4 µg/mL)
MIC (H. pylori; [15]): 1.6 µM (≈ 0.488 µg/mL)

MIC (MRSA; [11]): 92.7 µM (≈ 32 µg/mL)
MIC (E. coli; [12]): 92.7 µM (≈ 32 µg/mL)
MIC (S. epidermidis; [13]): 92.7 µM (≈ 32 µg/mL)
MIC (C. jejuni; [14]): 92.7 µM (≈ 32 µg/mL)
MIC (H. pylori; [15]): 1.5 µM (≈ 0.518 µg/mL)
Compound: COc1ccc(-c2ccc(C(=O)Nc3ncc([N+](=O)[O-])s3)o2)cc1 [VPC16b1139]

Compound: O=C(O)COc1ccc(C(=O)Nc2ncc([N+](=O)[O-])s2)cc1 [VPC162043]
MIC (MRSA; [1]): 99.0 µM (≈ 32 µg/mL)
MIC (E. coli; [2]): 99.0 µM (≈ 32 µg/mL)
MIC (S. epidermidis; [3]): 99.0 µM (≈ 32 µg/mL)
MIC (C. jejuni; [4]): 99.0 µM (≈ 32 µg/mL)
MIC (H. pylori; [5]): 99.0 µM (≈ 32 µg/mL)

Compound: COc1cc2cc(C(=O)Nc3ncc([N+](=O)[O-])s3)sc2cc1F [VPC161259]
MIC (MRSA; [6]): 11.3 µM (≈ 3.99 µg/mL)
MIC (E. coli; [7]): 90.6 µM (≈ 32 µg/mL)
MIC (S. epidermidis; [8]): 11.3 µM (≈ 3.99 µg/mL)
MIC (C. jejuni; [9]): 11.3 µM (≈ 3.99 µg/mL)
MIC (H. pylori; [10]): 2.1 µM (≈ 0.742 µg/mL)

Compound: O=C(Cc1ccccc1)Nc1ncc([N+](=O)[O-])s1 [VPC16a1013]
MIC (MRSA; [1]): 121.5 µM (≈ 32 µg/mL)
MIC (E. coli; [2]): 121.5 µM (≈ 32 µg/mL)
MIC (S. epidermidis; [3]): 22.8 µM (≈ 6 µg/mL)
MIC (C. jejuni; [4]): 1.8 µM (≈ 0.474 µg/mL)
MIC (H. pylori; [5]): 21.6 µM (≈ 5.69 µg/mL)
